Assay results taken from US20100105628A1, “REDUCING POST-OPERATIVE ADHESION FORMATION WITH INTRAPERITONEAL GLUTAMINE” (UNIVERSITY OF SASKATCHEWAN, priority 2007, published 2010).
Converted amounts (≈) assume the structure as drawn. Peptide text beside a SMILES is read from it.

Key:
[1] = cited from earlier work
male Wistar rats = test: modified cecal puncture with pulstring, post-operative adhesion formation (Example 1); type: in vivo, rat; conditions: for complications due to intraperitoneal use: 0.3-1.5 g/kg intra-peritoneally; for acute inflammatory response (macrophages and macrophage chemotactic proteins): days 3-7
Experimental: 70 plus male Wistar rats (over 350 g each) were assessed histologically on post-operative days 1, 3, 5, 7, 10, 30, and at about 6 weeks. The rats were randomly distributed based on the mode of treatment, type of sutures and presence or absence of hemorrhage during surgery. Initially, there were three surgery groups (alanyl-glutamine treatment, saline, no treatment) plus a control (no surgery). A fifth group using L-glutamine instead of alanyl-glutamine was included after preliminary results were obtained.
The rats were anaesthetized with halothane/Ketamine. Open surgery involving a midline sub-umbilical incision and a modified cecal puncture with pulstring to prevent soilage after abdominal closure was done. The procedure involved some fecal extrusion, mimicking clinical scenarios of iatrogenic/traumatic perforations of the bowel. Alanyl-glutamine [Degussa; Coubevoie, France] (0.3 g/kg-1.5 g/kg); saline (5 ml); or L-glutamine [Wiler; PCCA] (1.5 g/kg) was instilled into the peritoneal cavity from a syringe. The cecum, abdomen, and the skin were closed in layers using the same suture. Various absorbable (3/0 Vicryl™, 3/0 Monocryl™, 3/0 PDS™, 2/0 Maxon™) and non-absorbable sutures (3/0 Prolene™, 3/0 Ethibond™, 4/0 & 5/0 Surgilene™, 3/0 Novafil™) were used. The wound was infiltrated with local anesthetic. The animals were given sufficient chow to eat (20 g/day≈2 mmole/kg/day). The gastrointestinal tract and omentum were harvested from the stomach to the sigmoid colon and fixed in formaldehyde solution for evaluation.
The severity of adhesions was assessed histologically using standard Haematoxylin & Eosin and Masson trichrome stained slides. The latter helped delineate the degree of fibrosis and collagen deposition.
Semi-quantitative analysis was done by scoring the average number of milky spots per high-power-field (HPF). Quantitative statistical analysis was done using the T-test between the experimental groups. Milky spots are a marker for inflammation and adhesion formation.
We evaluated macrophage activity following the abdominal surgery using a macrophage chemotactic protein (MCP1) antibody stain. MCP1 is a marker for macrophage activity. […] The fact that MCP1 was reduced by the treatment but was not completely absent is significant since complete absence is not desirable as it is associated with peritonitis and septic complications post-laparotomy.

rats = test: cecal puncture with Marlex mesh inserted, adhesion score of Zuhlke (Example 2); type: in vivo, rat; conditions: day 90
Experimental: Previous studies show a high incidence of adhesion formation when surgical mesh is employed as a reinforcing material [6a, 6b]. We repeated trials as described in Example 1, inserting Marlex™ mesh during the procedure on the surgical groups.
Severity of adhesions was assessed at day 90 using the adhesion score of Zuhlke, et al.. This scoring procedure has been described in the literature for assessment of other potential treatments for adhesions. […] This differs from previous measurements of adhesions using polypropylene mesh which reported up to about 90% adhesion formation [6a].

Sprague-Dawley rats = test: secondary adhesions after adhesiolysis, mesh implanted (Example 3); type: in vivo, rat; conditions: three weeks after adhesiolysis and alanyl-glutamine; six months after initial surgery with mesh
Experimental: Adhesions tend to recur once in place. We examined the effect of alanyl-glutamine treatment on such secondary adhesions. The modified cecal perforation with pulstring closure procedure described in Example 1 was performed on 9 Sprague-Dawley rats. These were divided into 5 groups, each group receiving a different form of mesh (INTERCEED™; PROCEED™; BARD™ composite; prolene; and a mesh which was allowed to be “infected” by repeated re-opening of the wound). The surgical procedure with mesh implacement was performed without application of a glutamine source. Six months after initial surgery, a laparotomy was performed on each rat then adhesiolysis followed by installation of alanyl-glutamine.

[2] = versus saline and non-treatment surgical groups

Row | SMILES | solubility in water [1] | complications due to intraperitoneal use (male Wistar rats) | acute inflammatory response (macrophages and macrophage chemotactic proteins) (male Wistar rats; [2]) | water solubility ([1]; at 20° C.) | effectiveness of dosage (male Wistar rats; 0.3 g/kg intraperitoneal) | effectiveness of dosage (male Wistar rats; 1.5 g/kg intraperitoneal) | histological appearance of the peritoneum, adhesion (male Wistar rats; 10th post-operative day, intraperitoneal, compared with untreated and saline treated surgical groups) | fibrosis and collagen deposition (male Wistar rats; day-10 animals, versus saline and non-treatment surgical groups) | milky spots per 5 high power field (5HPF) (male Wistar rats; peritoneum, controls 1 per 5HPF, untreated surgical group 6-7 per 5HPF) | adhesions in all the suture groups (braided and monofilament) (male Wistar rats; rat, in vivo) | adhesion, histological, later assessment (male Wistar rats; rats assessed at 6 weeks) | adhesion score of Zuhlke (rats) | recurrence of adhesions (secondary adhesions), scored according to Zuhlke (Sprague-Dawley rats)
1 | NCC(=O)N[C@@H](CCC(N)=O)C(=O)O [Glycyl-glutamine] (H-Gly-Gln-OH) | 154 mg/mL (≈ 758 mM) | – | – | – | – | – | – | – | – | – | – | – | –
2 | NC(=O)CC[C@H](N)C(=O)O [L-glutamine] | – | did not observe complications | reduction, but to a lesser extent | 36 mg/mL (≈ 246 mM) | – | – | – | – | – | – | – | – | –
3 | C[C@H](N)C(=O)N[C@@H](CCC(N)=O)C(=O)O [alanyl-glutamine] (H-Ala-Gln-OH) | 568 mg/mL (≈ 2610 mM) | did not observe complications | markedly reduced | – | effective | effective | very minimal adhesion | reduced | the same as the controls | prevented adhesions | This result continued | 0-1 | no secondary adhesions were seen
